Patent US10202382B2 (Purdue Pharma L.P., priority 2014, dated 2019)

Biological target: T1, μ-opioid receptor (Homo sapiens, UniProt P35372)
T1 construct: expressed in transfected cells; host or cells: HEK-293
Experiment: μ-opioid receptor [35S]GTPγS functional assay
Type: biochemical
Details: HEK-293 cells; for Emax: maximal effect relative to DAMGO
Method: [^35S]GTPγS functional assays were conducted using freshly thawed μ-receptor membranes prepared in-house from a cell line expressing recombinant μ opioid receptor in a HEK-293, CHO or U-2 OS cell background, or purchased from a commercial source (Perkin Elmer, Shelton, Conn.; or DiscovRx, Fremont, Calif.). Assay reactions were prepared by sequentially adding the following reagents to binding buffer (100 mM NaCl, 10 mM MgCl2, 20 mM HEPES, pH 7.4) on ice (final concentrations indicated): membrane protein (0.026 mg/mL), saponin ([…]), GDP ([…]) and [^35S]GTPγS (0.20 nM; Perkin Elmer, Shelton, Conn.). The prepared membrane solution (190 μl/well) was transferred to 96-shallow well polypropylene plates containing 10 μl of 20× concentrated stock solutions of the agonist [D-Ala^2, N-methyl-Phe^4 Gly-ol^5]-enkephalin (DAMGO) prepared in dimethyl sulfoxide (DMSO). Plates were incubated for 30 min at about 25° C. with shaking. Reactions were terminated by rapid filtration onto 96-well Unifilter GF/B filter plates (Perkin Elmer, Shelton, Conn.) using a 96-well tissue harvester (Perkin Elmer, Shelton, Conn.) followed by three filtration washes with 200 μl of ice-cold wash buffer (10 mM NaH2PO4, 10 mM Na2HPO4, pH 7.4). Filter plates were subsequently dried at 50° C. for 2-3 hours. BetaScint scintillation cocktail (Perkin Elmer, Shelton, Conn.) was added (50 μl/well) and plates were counted using a Packard Top-Count for 1 min/well. Data were analyzed using the sigmoidal dose-response curve fitting functions in GraphPad PRISM v. 3.0, or an in-house function for non-linear, sigmoidal dose-response curve-fitting.
μ GTP EC50 is the concentration of a compound providing 50% of the maximal response for the compound at a μ-opioid receptor.
μ GTP Emax (%) is the maximal effect elicited by a compound relative to the effect elicited by DAMGO, a standard agonist. Generally, the μ GTP Emax (%) value measures the efficacy of a compound to treat or prevent pain or other Conditions.
In TABLE 1, activity response of certain Compounds of the Invention to the μ-opioid receptors was determined as described above for functional assays using HEK-293 cells.

[1] = cell prints μM under an nM head
[2] = membranes with recombinant μ opioid receptor

T1 sequence (P35372 whole entry, species assumed): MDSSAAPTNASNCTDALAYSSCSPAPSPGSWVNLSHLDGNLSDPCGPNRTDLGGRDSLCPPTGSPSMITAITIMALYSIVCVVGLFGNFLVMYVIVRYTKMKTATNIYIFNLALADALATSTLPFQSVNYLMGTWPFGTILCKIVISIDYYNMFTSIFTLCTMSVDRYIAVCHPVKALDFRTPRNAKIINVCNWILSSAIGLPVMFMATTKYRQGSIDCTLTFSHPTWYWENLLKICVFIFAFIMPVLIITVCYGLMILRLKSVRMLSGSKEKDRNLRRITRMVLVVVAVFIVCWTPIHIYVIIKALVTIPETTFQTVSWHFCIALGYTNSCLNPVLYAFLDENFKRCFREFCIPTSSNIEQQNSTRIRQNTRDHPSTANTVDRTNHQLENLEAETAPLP

Row | SMILES | EC50 [1] | Emax | EC50 [2]
1 | COc1ccc(CN2C[C@H]3[C@H]4Cc5ccc(OC)cc5[C@@]3(CCN4C)CC2=O)cc1 [Compound 8, (4aS,5R,10bS)-9-methoxy-3-(4-methoxybenzyl)-13-methyl-4,4a,5,6-tetrahydro-1H-5,10b-(epiminoethano)benzo[f]isoquinolin-2(3H)-one] | > 20 µM | 70.3 ± 1.67% | –
2 | COc1ccc(CN2CC[C@]34CCN(C)[C@H](Cc5ccc(OC)cc53)[C@@H]4C2)cc1 [Compound 9, (4aS,5R,10bR)-9-methoxy-3-(4-methoxybenzyl)-13-methyl-2,3,4,4a,5,6-hexahydro-1H-5,10b-(epiminoethano)benzo[f]isoquinoline] | > 20 µM | 28.7 ± 1.45% | –
3 | COc1ccc2c(c1)[C@]13CCN(C)[C@H](C2)[C@@H]1CNC(=O)C3 [Compound 11, (4aS,5R,10bS)-9-methoxy-13-methyl-4,4a,5,6-tetrahydro-1H-5,10b-(epiminoethano)benzo[f]isoquinolin-2(3H)-one] | > 20 µM | 57.8 ± 2.68% | –
4 | CN1CC[C@]23CCN(Cc4ccc(O)cc4)C[C@H]2[C@H]1Cc1ccc(O)cc13 [Compound 23, (4aS,5R,10bR)-3-(4-hydroxybenzyl)-13-methyl-2,3,4,4a,5,6-hexahydro-1H-5,10b-(epiminoethano)benzo[f]isoquinolin-9-ol] | – | 51.7 ± 2.85% | 1.59 ± 0.0616 µM
5 | CN1CC[C@]23CC(=O)NC[C@H]2[C@H]1Cc1ccc(O)cc13 [Compound 24, (4aS,5R,10bS)-9-hydroxy-13-methyl-4,4a,5,6-tetrahydro-1H-5,10b-(epiminoethano)benzo[f]isoquinolin-2(3H)-one] | – | 52 ± 2.08% | 1.38 ± 0.104 µM
6 | CN1CC[C@]23CCNC[C@H]2[C@H]1Cc1ccc(O)cc13 [Compound 25, (4aS,5R,10bR)-13-methyl-2,3,4,4a,5,6-hexahydro-1H-5,10b-(epiminoethano)benzo[f]isoquinolin-9-ol] | – | 43.7 ± 1.45% | 8.36 ± 0.929 µM
7 | CN1CC[C@]23CC(=O)N(CC4CC4)C[C@H]2[C@H]1Cc1ccc(O)cc13 [Compound 26] | – | 67.7 ± 1.2% | 0.881 ± 0.183 µM
8 | CN1CC[C@]23CCN(CC4CC4)C[C@H]2[C@H]1Cc1ccc(O)cc13 [Compound 27, (4aS,5R,10bR)-3-(cyclopropylmethyl)-13-methyl-2,3,4,4a,5,6-hexahydro-1H-5,10b-(epiminoethano)benzo[f]isoquinolin-9-ol] | – | 44.4 ± 2.5% | 14 ± 1.94 µM
9 | CN1CC[C@]23CC(=O)N(Cc4ccccc4)C[C@H]2[C@H]1Cc1ccc(O)cc13 [Compound 28] | – | 58.7 ± 4.84% | 2.73 ± 0.392 µM
10 | CC(=O)N1CC[C@]23CCN(C)[C@H](Cc4ccc(O)cc42)[C@@H]3C1 [Compound 29, 1-((4aS,5R,10bS)-9-hydroxy-13-methyl-1,2,4,4a,5,6-hexahydro-3H-5,10b-(epiminoethano)benzo[f]isoquinolin-3-yl)ethan-1-one] | – | 64.7 ± 4.63% | 0.298 ± 0.0278 µM
11 | CC(C)C(=O)N1CC[C@]23CCN(C)[C@H](Cc4ccc(O)cc42)[C@@H]3C1 [Compound 30, 1-((4aS,5R,10bS)-9-hydroxy-13-methyl-1,2,4,4a,5,6-hexahydro-3H-5,10b-(epiminoethano)benzo[f]isoquinolin-3-yl)-2-methylpropan-1-one] | – | 37.2 ± 1.18% | 0.733 ± 0.0407 µM
12 | CN1CC[C@]23CCN(C(=O)C4CC4)C[C@H]2[C@H]1Cc1ccc(O)cc13 [Compound 31, Cyclopropyl ((4aS,5R,10bS)-9-hydroxy-13-methyl-1,2,4,4a,5,6-hexahydro-3H-5,10b-(epiminoethano)benzo[f]isoquinolin-3-yl)methanone] | – | 49 ± 1.53% | 0.725 ± 0.0265 µM
13 | CN1CC[C@]23CCN(C)[C@H](Cc4ccc(O)cc42)[C@@H]3C1 [Compound 32, (4aS,5R,10bR)-3,13-dimethyl-2,3,4,4a,5,6-hexahydro-1H-5,10b-(epiminoethano)benzo[f]isoquinolin-9-ol] | – | 71.7 ± 3.18% | 1.07 ± 0.14 µM
14 | CN1CC[C@]23CCN(C(=O)Nc4ccccc4)C[C@H]2[C@H]1Cc1ccc(O)cc13 [Compound 33, (4aS,5R,10bS)-9-hydroxy-13-methyl-N-phenyl-1,2,4,4a,5,6-hexahydro-3H-5,10b-(epiminoethano)benzo[f]isoquinoline-3-carboxamide] | – | 54.7 ± 8.35% | 0.152 ± 0.00519 µM
